Common to all, as to assay type: in vivo
The test system of one experiment is Sphaerotheca fuliginea. As to the kind of experiment: Sphaerotheca test (cucumber)/protective. As to conditions: Podosphaera fuliginea, 168 h, protective, application rate 100 g/ha, evaluation 7 days after inoculation, read-out: Efficacy in %. The protocol:
[table] To produce a suitable preparation of active compound, one part by weight of active compound is mixed with the stated amounts of solvent and emulsifier, and the concentrate is diluted with water to the desired concentration. To test for protective activity, young plants are sprayed with the preparation of active compound at the stated application rate. After the spray coating has dried on, the plants are inoculated with an aqueous spore suspension of Sphaerotheca fuliginea. The plants are then placed in a greenhouse at about 23° C. and a relative atmospheric humidity of about 70%. Evaluation is carried out 7 days after the inoculation. 0% means an efficacy which corresponds to that of the control, whereas an efficacy of 100% means that no infection is observed.

The next experiment deals with Puccinia recondita. As to the kind of experiment: Puccinia test (wheat)/protective. As to conditions: 240 h, protective, application rate 500 g/ha, evaluation 10 days after inoculation, read-out: Efficacy in %. The protocol:
[table] To produce a suitable preparation of active compound, 1 part by weight of active compound is mixed with the stated amounts of solvent and emulsifier, and the concentrate is diluted with water to the desired concentration. To test for protective activity, young plants are sprayed with the preparation of active compound at the stated application rate. After the spray coating has dried on, the plants are sprayed with a conidia suspension Puccinia recondita. The plants remain in an incubation cabin at 20° C. and 100% relative atmospheric humidity for 48 hours. The plants are then placed in a greenhouse at a temperature of about 20° C. and a relative atmospheric humidity of 80% to promote the development of rust pustules. Evaluation is carried out 10 days after the inoculation. 0% means an efficacy which corresponds to that of the control, whereas an efficacy of 100% means that no infection is observed.

The next experiment concerns Alternaria solani. The experiment can be described thus: Alternaria test (tomato)/protective. Particulars: protective, application rate 750 g/ha, evaluation 7 days after inoculation. The protocol: [table] To produce a suitable preparation of active compound, 1 part by weight of active compound is mixed with the stated amounts of solvent and emulsifier, and the concentrate is diluted with water to the desired concentration. To test for protective activity, young tomato plants are sprayed with the preparation of active compound at the stated application rate. One day after the treatment, the plants are inoculated with a spore suspension of Alternaria solani and then remain at 100% relative humidity and at 20° C. for 24 hours. The plants then remain at 96% relative atmospheric humidity and a temperature of 20° C. Evaluation is carried out 7 days after the inoculation. 0% means an efficacy which corresponds to that of the control, whereas an efficacy of 100% means that no infection is observed.

The record followed here is patent publication US7745483B2, “2-Halofuryl-thienyl-3-carboxamides” (Bayer CropScience AG, priority 2004, dated 2010).

Molecules are shown by their SMILES.

`O=C(Nc1ccc(F)cc1-c1cccc(Cl)c1F)c1ccsc1I` [drawing 162]: the pest or weed control at 100 g/ha in the experiment on Sphaerotheca fuliginea was found to be 100%.
For `CC(C)(C)CCc1cc(F)ccc1NC(=O)c1ccsc1I` [drawing 163], the pest or weed control at 100 g/ha in the experiment with Sphaerotheca fuliginea amounted to 100%.
Take `O=C(Nc1ccccc1-c1ccc(Cl)cc1)c1ccoc1I` [drawing 164]: the pest or weed control at 100 g/ha in the experiment on Sphaerotheca fuliginea was found to be 100%.
Same read-out and setting: the result for `O=C(Nc1ccccc1-c1ccc(Br)cc1)c1ccoc1I` [drawing 165] reads 100%; that for `O=C(Nc1ccccc1-c1ccc(Cl)c(Cl)c1)c1ccoc1I` [drawing 166], 100%; that for `O=C(Nc1ccccc1-c1ccc(Cl)c(F)c1)c1ccoc1I` [drawing 167], 98%.
Take `O=C(Nc1ccccc1-c1ccc(Cl)cc1)c1ccsc1I` [drawing 168]: the pest or weed control at 100 g/ha with Sphaerotheca fuliginea was 95%.
The same measure, in the same setting: the result for `O=C(Nc1ccccc1-c1ccc(Br)cc1)c1ccsc1I` [drawing 169] reads 100%; that for `O=C(Nc1ccccc1-c1ccc(Cl)c(F)c1)c1ccsc1I` [drawing 170], 98%; that for `CC(C[Si](C)(C)C)c1ccccc1NC(=O)c1ccoc1I` (stereo not drawn) [drawing 171], 100%.
Take `O=C(Nc1ccccc1-c1ccc(C(F)(F)F)cc1)c1ccsc1I` [drawing 172]: the pest or weed control at 100 g/ha in the experiment on Sphaerotheca fuliginea came out at 93%.
Turning to `O=C(Nc1ccc(F)cc1-c1ccc(Cl)c(Cl)c1)c1ccsc1I` [drawing 173], in the experiment on Sphaerotheca fuliginea, the pest or weed control at 100 g/ha was determined as 100%.
For the compound `Cc1ccc(-c2ccccc2NC(=O)c2ccsc2I)cc1F` [drawing 174], the pest or weed control at 100 g/ha with Sphaerotheca fuliginea came to 100%.
Still for that read-out and setting: the result for `CC(C)CC(C)c1cc(F)ccc1NC(=O)c1ccsc1I` (stereo not drawn) [drawing 175] reads 97%.
Consider `CO/N=C/c1ccc(-c2ccccc2NC(=O)c2ccsc2I)cc1F` [drawing 176], for which the pest or weed control at 100 g/ha in the experiment with Sphaerotheca fuliginea was determined as 98%.
On the same count and under the same terms, the result for `CC(C)CC(C)c1sccc1NC(=O)c1ccsc1I` (stereo not drawn) [drawing 177] reads 92%; that for `CC(C)CC(C)c1ccccc1NC(=O)c1ccsc1Br` (stereo not drawn) [drawing 178], 100%.
Consider `CC(CC(C)(C)C)c1ccccc1NC(=O)c1ccsc1Br` (stereo not drawn) [drawing 179], for which the pest or weed control at 100 g/ha with Sphaerotheca fuliginea turned out to be 97%.
Still for that read-out and setting: then `O=C(Nc1ccccc1-c1ccc(Cl)cc1)c1ccsc1Br` [drawing 180], with 100%.
On the same count and under the same terms, then `O=C(Nc1ccccc1-c1ccc(Cl)c(Cl)c1)c1ccsc1Br` [drawing 181], with 100%.
Same read-out and setting: the result for `O=C(Nc1ccccc1-c1ccc(Cl)c(F)c1)c1ccsc1Br` [drawing 182] reads 100%; that for `O=C(Nc1ccccc1-c1ccc(F)c(Cl)c1)c1ccsc1I` [drawing 183], 100%.
Regarding `C[Si](C)(C)CCc1sccc1NC(=O)c1ccsc1I` [drawing 184], the pest or weed control at 100 g/ha in the experiment on Sphaerotheca fuliginea turned out to be 100%.
Take `CC(C)CC(C)c1ccccc1NC(=O)c1ccsc1I` (stereo not drawn) [drawing 260]: in the experiment with Puccinia recondita, the pest or weed control at 500 g/ha stood at 100%.
The same measure, in the same setting: then `CC(C)CC(C)c1ccccc1NC(=O)c1ccoc1I` (stereo not drawn) [drawing 261], with 100%.
In the case of `C[Si](C)(C)CCc1ccccc1NC(=O)c1ccsc1I` [drawing 262], in the experiment on Puccinia recondita, the pest or weed control at 500 g/ha came out at 97%.
The same measure, in the same setting: then `CC(C)(C)CCc1ccccc1NC(=O)c1ccsc1I` [drawing 263], with 97%; and `O=C(Nc1ccccc1-c1ccc(Br)c(F)c1)c1ccsc1I` [drawing 264], with 100%; and `O=C(Nc1ccccc1-c1ccc(Br)c(Cl)c1)c1ccsc1I` [drawing 265], with 100%.
The same measure, in the same setting: the result for `CC(C)(C)CCc1cc(F)ccc1NC(=O)c1ccsc1I` [drawing 266] reads 100%; that for `O=C(Nc1ccccc1-c1ccc(Cl)cc1)c1ccoc1I` [drawing 267], 100%; that for `O=C(Nc1ccccc1-c1ccc(Br)cc1)c1ccoc1I` [drawing 268], 100%.
Same read-out and setting: then `CC(CC(C)(C)C)c1ccccc1NC(=O)c1ccoc1I` (stereo not drawn) [drawing 269], with 100%; and `O=C(Nc1ccccc1-c1ccc(Cl)c(F)c1)c1ccoc1I` [drawing 270], with 100%; and `O=C(Nc1ccccc1-c1ccc(Cl)c(Cl)c1)c1ccsc1I` [drawing 271], with 100%.
In the case of `CC(CC(C)(C)C)c1ccccc1NC(=O)c1ccsc1I` (stereo not drawn) [drawing 272], the pest or weed control at 500 g/ha in the experiment on Puccinia recondita worked out at 100%.
On the same count and under the same terms, the result for `C=C(CC(C)(C)C)c1ccccc1NC(=O)c1ccsc1I` [drawing 273] reads 93%; that for `O=C(Nc1ccccc1-c1ccc(Cl)c(F)c1)c1ccsc1I` [drawing 274], 94%; that for `CC(C[Si](C)(C)C)c1ccccc1NC(=O)c1ccoc1I` (stereo not drawn) [drawing 275], 100%.
For `CC(C[Si](C)(C)C)c1ccccc1NC(=O)c1ccsc1I` (stereo not drawn) [drawing 276], the pest or weed control at 500 g/ha in the experiment with Puccinia recondita worked out at 100%.
Still for that read-out and setting: the result for `O=C(Nc1ccc(F)cc1-c1ccc(Cl)c(Cl)c1)c1ccsc1I` [drawing 277] reads 100%.
Take `CC1CC(C)(C)c2cccc(NC(=O)c3ccsc3I)c21` (stereo not drawn) [drawing 278]: in the experiment with Puccinia recondita, the pest or weed control at 500 g/ha was determined as 100%.
With `CC(C)CC(C)c1cc(F)ccc1NC(=O)c1ccsc1I` (stereo not drawn) [drawing 279], in the experiment on Puccinia recondita, the pest or weed control at 500 g/ha came out at 100%.
The same measure, in the same setting: then `CO/N=C/c1ccc(-c2ccccc2NC(=O)c2ccsc2I)cc1F` [drawing 280], with 100%.
As for `CC(C)CC(C)c1sccc1NC(=O)c1ccsc1I` (stereo not drawn) [drawing 281], in the experiment with Puccinia recondita, the pest or weed control at 500 g/ha was 100%.
The same measure, in the same setting: the result for `CC(C)CC(C)c1ccccc1NC(=O)c1ccsc1Br` (stereo not drawn) [drawing 282] reads 100%; that for `CC(CC(C)(C)C)c1ccccc1NC(=O)c1ccsc1Br` (stereo not drawn) [drawing 283], 100%.
The same measure, in the same setting: the result for `O=C(Nc1ccccc1-c1ccc(Cl)c(Cl)c1)c1ccsc1Br` [drawing 284] reads 100%; that for `O=C(Nc1ccccc1-c1ccc(Cl)c(F)c1)c1ccsc1Br` [drawing 285], 100%; that for `O=C(Nc1ccccc1-c1ccc(F)c(Cl)c1)c1ccsc1I` [drawing 286], 100%.
On to `CC(C[Si](C)(C)C)c1cc(F)ccc1NC(=O)c1ccsc1I` (stereo not drawn) [drawing 287], for which the pest or weed control at 500 g/ha in the experiment with Puccinia recondita turned out to be 100%.
For the compound `CC(C)(C)CCc1ccccc1NC(=O)c1ccsc1I` [drawing 288], in the experiment with Alternaria solani, the Efficacy in % came out at 94%.
As to `CC(C)CC(C)c1ccccc1NC(=O)c1ccsc1I` (stereo not drawn) [drawing 289], in the experiment on Alternaria solani, the Efficacy in % worked out at 100%.
Still for that read-out and setting: the result for `CC(C)CC(C)c1ccccc1NC(=O)c1ccoc1I` (stereo not drawn) [drawing 290] reads 94%.
